Tested on: HBV
Assay: HBV-DNA antiviral assay using HepG2.117 cells (intracellular HBV DNA by qPCR)
Format: cell-based, genotype D HBV
Details: Hepatitis B virus, 72 h, HBV DNA inhibition, 3 days incubation, 2% DMSO
In short: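 Endpoints are intracellular HBV DNA by qPCR (interpolated from a gBlock standard curve) and ATP-based viability in duplicate plates. Doxycycline-free HepG2.117 Tet-off cells received compounds (9 concentrations, 4-fold steps, 2% DMSO) for 3 days. Inhibition normalised to DMSO wells; EC50/EC90/CC50 by curve fitting.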

Q: How did the EC50 turn out when `CNc1n[nH]c2cc(-n3c(=O)c4c(n5ncc(CC(C)C)c35)CN(C(=O)c3ccc(Cl)c(C(F)(F)F)c3)[C@H](C)C4)ccc12` (stereo in doubt) [Compound 56a, rac-(11R)-12-[4-chloro-3-(trifluoromethyl)benzoyl]-5-isobutyl-11-methyl-7-[3-(methylamino)-1H-indazol-6-yl]-2,3,7,12-tetrazatricyclo[7.4.0.0^2,6]trideca-1(9),3,5-trien-8-one] was run?
A: < 50 nM

Q: How did the EC50 turn out when `Cc1nn[nH]c1-c1ccc(-n2c(=O)c3c(n4ncc(Cc5ccccc5)c24)CN(C(=O)c2ccc(Br)c(C(F)(F)F)c2)[C@@H](C)C3)cc1` (stereo in doubt) [Compound 80b, rac-(11S)-5-benzyl-12-[4-bromo-3-(trifluoromethyl)benzoyl]-11-methyl-7-[4-(4-methyl-1H-triazol-5-yl)phenyl]-2,3,7,12 tetrazatricyclo[7.4.0.0^2,6]trideca-1(9),3,5-trien-8-one] was run?
A: 50 to 500 nM

Q: `CNc1nnc2cc(-n3c(=O)c4c(n5ncc(Cc6ccccc6)c35)CN(C(=O)c3ccc(Br)c(C(F)(F)F)c3)CC4)ccn12` [Compound 30, 5-benzyl-12-[4-bromo-3-(trifluoromethyl)benzoyl]-7-[3-(methylamino)-[1,2,4]triazolo[4,3-a]pyridin-7-yl]-2,3,7,12-tetrazatricyclo[7.4.0.0^2,6]trideca-1(9),3,5-trien-8-one] was tested. Which EC50 did it give?
A: < 50 nM

Q: With `Cc1nn[nH]c1-c1ccc(-n2c(=O)c3c(n4ncc(CC(C)C)c24)CN(C(=O)c2ccc(Br)c(C(F)(F)F)c2)[C@@H](C)C3)cc1` (stereo in doubt) [Compound 62b, rac-(11S)-12-[4-bromo-3-(trifluoromethyl)benzoyl]-5-isobutyl-11-methyl-7-[4-(4-methyl-1H-triazol-5-yl)phenyl]-2,3,7,12-tetrazatricyclo[7.4.0.0^2,6]trideca-1(9),3,5-trien-8-one] as the compound, how does the EC50 read?
A: 50 to 500 nM

Q: Which EC50 does the source give for `CNC(=O)c1ccc(-n2c(=O)c3c(n4ncc(CC5CCC5)c24)CN(C(=O)c2ccc(Br)c(Cl)c2)CC3)cc1` [Compound 14, 4-[12-(4-bromo-3-chloro-benzoyl)-5-(cyclobutylmethyl)-8-oxo-2,3,7,12-tetrazatricyclo[7.4.0.0^2,6]trideca-1(9),3,5-trien-7-yl]-N-methyl-benzamide] here?
A: < 50 nM

Q: With `Cc1ccn(-c2ccc(-n3c(=O)c4c(n5ncc(CC(C)C)c35)CN(C(=O)c3ccc(Br)c(C(F)(F)F)c3)[C@@H](C)C4)cc2)n1` (stereo in doubt) [Compound 100b, rac-(11S)-12-[4-bromo-3-(trifluoromethyl)benzoyl]-5-isobutyl-11-methyl-7-[4-(3-methylpyrazol-1-yl)phenyl]-2,3,7,12-tetrazatricyclo[7.4.0.0^2,6]trideca-1(9),3,5-trien-8-one] as the compound, how does the EC50 read?
A: 500 to 5000 nM

Q: Which EC50 does the source give for `Cc1nnc(-c2ccc(-n3c(=O)c4c(n5ncc(CC(C)C)c35)CN(C(=O)c3ccc(Br)c(Cl)c3)[C@H](C)C4)cc2)[nH]1` (stereo in doubt) [Compound 66a, rac-(11R)-12-(4-bromo-3-chloro-benzoyl)-5-isobutyl-11-methyl-7-[4-(5-methyl-4H-1,2,4-triazol-3-yl)phenyl]-2,3,7,12-tetrazatricyclo[7.4.0.0^2,6]trideca-1(9),3,5-trien-8-one] here?
A: < 50 nM

Q: For `CNc1n[nH]c2cc(-n3c(=O)c4c(n5ncc(CC(C)C)c35)CN(C(=O)c3ccc(Br)c(Cl)c3)[C@H](C)C4)ccc12` (stereo in doubt) [Compound 57a, rac-(11R)-12-(4-bromo-3-chloro-benzoyl)-5-isobutyl-11-methyl-7-[3-(methylamino)-1H-indazol-6-yl]-2,3,7,12-tetrazatricyclo[7.4.0.0^2,6]trideca-1(9),3,5-trien-8-one], which EC50 is on record?
A: < 50 nM

Q: `Cc1cnn(-c2ccc(-n3c(=O)c4c(n5ncc(CC(C)C)c35)CN(C(=O)c3ccc(Br)c(C(F)(F)F)c3)[C@H](C)C4)cc2)n1` (stereo in doubt) [Compound 99a, rac-(11R)-12-[4-bromo-3-(trifluoromethyl)benzoyl]-5-isobutyl-11-methyl-7-[4-(4-methyltriazol-2-yl)phenyl]-2,3,7,12-tetrazatricyclo[7.4.0.0^2,6]trideca-1(9),3,5-trien-8-one] was tested. Which EC50 did it give?
A: < 50 nM

Q: How did the EC50 turn out when `CNC(=O)c1cnc(-n2c(=O)c3c(n4ncc(CC(C)C)c24)CN(C(=O)c2ccc(Br)c(C(F)(F)F)c2)[C@@H](C)C3)cn1` (stereo in doubt) [Compound 89b, [rac-(11S)-12-[4-bromo-3-(trifluoromethyl)benzoyl]-5-isobutyl-11-methyl-8-oxo-2,3,7,12-tetrazatricyclo[7.4.0.0^2,6]trideca-1(9),3,5-trien-7-yl]pyrazine-2-carboxamide] was run?
A: 50 to 500 nM

Q: Which EC50 does the source give for `Cc1nnc(-c2ccc(-n3c(=O)c4c(n5ncc(Cc6ccccc6)c35)CN(C(=O)c3ccc(Br)c(Cl)c3)CC4)cc2)[nH]1` [Compound 1, 5-benzyl-12-(4-bromo-3-chloro-benzoyl)-7-[4-(5-methyl-4H-1,2,4-triazol-3-yl)phenyl]-2,3,7,12-tetrazatricyclo[7.4.0.0^2,6]trideca-1(9),3,5-trien-8-one] here?
A: < 50 nM

Q: `CNC(=O)c1ccc(-n2c(=O)c3c(n4ncc(CC(C)C)c24)CN(C(=O)c2ccc(Br)c(Cl)c2)[C@@H](C)C3)cc1` (stereo in doubt) [Compound 55b, N-methyl-4-[rac-(11S)-12-(4-bromo-3-chloro-benzoyl)-5-isobutyl-11-methyl-8-oxo-2,3,7,12-tetrazatricyclo[7.4.0.0^2,6]trideca-1(9),3,5-trien-7-yl]benzamide] was tested. Which EC50 did it give?
A: 50 to 500 nM

Q: For `C[C@H]1Cc2c(n3ncc(CC4CCC4)c3n(-c3ccc(-c4nncn4C)cc3)c2=O)CN1C(=O)c1ccc(Br)c(Cl)c1` (stereo in doubt) [Compound 48b, rac-(11S)-12-(4-bromo-3-chloro-benzoyl)-5-(cyclobutylmethyl)-11-methyl-7-[4-(4-methyl-1,2,4-triazol-3-yl)phenyl]-2,3,7,12-tetrazatricyclo[7.4.0.0^2,6]trideca-1(9),3,5-trien-8-one], which EC50 is on record?
A: 50 to 500 nM

Q: `CNc1n[nH]c2cc(-n3c(=O)c4c(n5ncc(Cc6ccccc6)c35)CN(C(=O)c3ccc(Br)c(C(F)(F)F)c3)[C@H](C)C4)ccc12` (stereo in doubt) [Compound 43a, rac-(11R)-5-benzyl-12-[4-bromo-3-(trifluoromethyl)benzoyl]-11-methyl-7-[3-(methylamino)-1H-indazol-6-yl]-2,3,7,12-tetrazatricyclo[7.4.0.0^2,6]trideca-1(9),3,5-trien-8-one] was tested. Which EC50 did it give?
A: < 50 nM

Q: With `Cc1nnc(-c2ccc(-n3c(=O)c4c(n5ncc(Cc6ccccc6)c35)CN(C(=O)c3ccc(Cl)c(C(F)(F)F)c3)[C@@H](C)C4)cc2)[nH]1` (stereo in doubt) [Compound 52b, rac-(11S)-5-benzyl-12-[4-chloro-3-(trifluoromethyl)benzoyl]-11-methyl-7-[4-(5-methyl-4H-1,2,4-triazol-3-yl)phenyl]-2,3,7,12-tetrazatricyclo[7.4.0.0^2,6]trideca-1(9),3,5-trien-8-one] as the compound, how does the EC50 read?
A: 50 to 500 nM

Q: Which EC50 does the source give for `C[C@H]1Cc2c(n3ncc(Cc4ccccc4)c3n(-c3ccc(-c4nnc(C(F)(F)F)[nH]4)cc3)c2=O)CN1C(=O)c1ccc(Br)c(C(F)(F)F)c1` (stereo in doubt) [Compound 74b, rac-(11S)-5-benzyl-12-[4-bromo-3-(trifluoromethyl)benzoyl]-11-methyl-7-[4-[5-(trifluoromethyl)-4H-1,2,4-triazol-3-yl]phenyl]-2,3,7,12-tetrazatricyclo[7.4.0.0^2,6]trideca-1(9),3,5-trien-8-one] here?
A: 50 to 500 nM
